Experimental data: patent US20250275943A1, “COMPOSITION FOR CANCER DIAGNOSIS TARGETING TUMOR AND/OR TUMOR MICROENVIRONMENT AND USE THEREOF” (Korea University Research and Business Foundation, priority 2024, published 2025)
Where two headings read alike, the source gives them in different places.

Tests used:
[1] = Mouse tissue staining experiment, fluorescence of extracted organs; settings: normal mouse, organs extracted 4 hours after injection; FIG. 9
From the text: (§1) Each graph represents the fluorescence signal of each organ.

[2] = mouse, in vivo
From the text: as §1

[3] = tested on: A549 cancer cells, which do not express folate receptors, and H522 cancer cells, which express folate receptors; assay: Fluorescent contrast observation of cancer cells with and without folate receptor expression; type: cell-based; settings: A549 (no folate receptors) vs H522 (folate receptors); FIG. 5A, 5B
From the text: Accordingly, it was identified that FMK-2 had no cytotoxicity.

| SMILES | fluorescence signal of each organ [1] | fluorescence signal of each organ [2] | fluorescence expression in cancer cells depending on folate receptor expression [3] |
| --- | --- | --- | --- |
| CC1(C)C(/C=C/C2=C(Cl)C(=C/C=C3/N(CCC(=O)O)c4ccc(S(=O)(=O)O)cc4C3(C)C)/CCC2)=[N+](CCC(=O)O)c2ccc(S(=O)(=O)[O-])cc21 [Compound 1, 3-(2-((E)-2-((E)-3-(2-((E)-1-(2-carboxyethyl)-3,3-dimethyl-5-sulfoindolin-2-ylidene)ethylidene)-2-chlorocyclohex-1-en-1-yl)vinyl)-3,3-dimethyl-5-sulfo-3H-indol-1-ium-1-yl)propanoate] | signals were higher in the liver and kidneys compared to other organs | – | – |
| CC1(C)C(/C=C/C2=C(Cl)C(=C/C=C3/N(CCC(=O)NC4O[C@@H](CO)[C@H](O)[C@@H](O)[C@H]4O)c4ccc(S(=O)(=O)O)cc4C3(C)C)/CCC2)=[N+](CCC(=O)NC2O[C@H](CO)[C@@H](O)[C@H](O)[C@@H]2O)c2ccc(S(=O)(=O)O)cc21 (stereo partly drawn) [Compound 2, 2-((E)-2-((E)-2-chloro-3-(2-((E)-3,3-dimethyl-1-(3-oxo-3-(((3R,4R,5R,6S)-3,4,5-trihydroxy-6-(hydroxymethyl)tetrahydro-2H-pyran-2-yl)amino)propyl)-5-sulfoindolin-2-ylidene)ethylidene)cyclohex-1-en-1-yl)vinyl)-3,3-dimethyl-1-(3-oxo-3-(((3S,4S,5S,6R)-3,4,5-trihydroxy-6-(hydroxymethyl)tetrahydro-2H-pyran-2-yl)amino)propyl)-5-sulfo-3H-indol-1-ium] | – | overall signals were identified in all organs | expressed fluorescence in cancer cells regardless of whether folate receptors were expressed |
| CC1(C)C(/C=C/C2=C(SCCOCCOCCNC(=O)CCC(NC(=O)c3ccc(NCc4cnc5nc(N)nc(O)c5n4)cc3)C(=O)O)C(=C/C=C3/N(CCC(=O)O)c4ccc(S(=O)(=O)O)cc4C3(C)C)/CCC2)=[N+](CCC(=O)O)c2ccc(S(=O)(=O)[O-])cc21 (stereo not shown) [Compound 4, 2-((E)-2-((E)-2-((1-(4-(((2-amino-4-oxo-1,4-dihydropteridin-7-yl)methyl)amino)phenyl)-3-carboxy-1,6-dioxo-10,13-dioxa-2,7-diazapentadecan-15-yl)thio)-3-(2-((E)-1-(2-carboxyethyl)-3,3-dimethyl-5-sulfoindolin-2-ylidene)ethylidene)cyclohex-1-en-1-yl)vinyl)-1-(2-carboxyethyl)-3,3-dimethyl-5-sulfo-3H-indol-1-ium] | signals were identified in the kidneys and small intestine | – | – |
